Experimental data reported in the NIST ThermoML archive (doi:10.1021/acs.jced.8b00854).
± gives the expanded uncertainty stated by the source.

Legend:
[1] = refractive index (Na D-line) (dimensionless); xn = mol fraction of the nth substance listed; conditions: 100 kPa, Liquid, Standard Abbe refractometry
[2] = xn = mol fraction of the nth substance listed; conditions: 100 kPa, Liquid, Vibrating tube method

CCn1cc[n+](C)c1.F[B-](F)(F)F [1-ethyl-3-methylimidazolium tetrafluoroborate] + O
refractive index ([1]; 293.15 K, x1 = 0.1001): 1.369 ± 0.0017 | refractive index ([1]; 293.15 K, x1 = 0.2002): 1.3825 ± 0.0016 | refractive index ([1]; 293.15 K, x1 = 0.3004): 1.3915 ± 0.0016 | refractive index ([1]; 293.15 K, x1 = 0.4003): 1.398 ± 0.0016 | refractive index ([1]; 293.15 K, x1 = 0.5009): 1.401 ± 0.0016 | refractive index ([1]; 293.15 K, x1 = 0.5999): 1.4045 ± 0.0017 | refractive index ([1]; 293.15 K, x1 = 0.7002): 1.4065 ± 0.0017 | refractive index ([1]; 293.15 K, x1 = 0.8004): 1.4085 ± 0.0017 | refractive index ([1]; 293.15 K, x1 = 0.9011): 1.4105 ± 0.0017 | refractive index ([1]; 303.15 K, x1 = 0.1001): 1.367 ± 0.0016 | refractive index ([1]; 303.15 K, x1 = 0.2002): 1.381 ± 0.0016 | refractive index ([1]; 303.15 K, x1 = 0.3004): 1.3895 ± 0.0016 | refractive index ([1]; 303.15 K, x1 = 0.4003): 1.3955 ± 0.0017 | refractive index ([1]; 303.15 K, x1 = 0.5009): 1.3995 ± 0.0016 | refractive index ([1]; 303.15 K, x1 = 0.5999): 1.402 ± 0.0017 | refractive index ([1]; 303.15 K, x1 = 0.7002): 1.4045 ± 0.0017 | refractive index ([1]; 303.15 K, x1 = 0.8004): 1.407 ± 0.0017 | refractive index ([1]; 303.15 K, x1 = 0.9011): 1.408 ± 0.0017 | refractive index ([1]; 313.15 K, x1 = 0.1001): 1.3655 ± 0.0016 | refractive index ([1]; 313.15 K, x1 = 0.2002): 1.379 ± 0.0016 | refractive index ([1]; 313.15 K, x1 = 0.3004): 1.3875 ± 0.0016 | refractive index ([1]; 313.15 K, x1 = 0.4003): 1.3935 ± 0.0016 | refractive index ([1]; 313.15 K, x1 = 0.5009): 1.3975 ± 0.0016 | refractive index ([1]; 313.15 K, x1 = 0.5999): 1.4005 ± 0.0017 | refractive index ([1]; 313.15 K, x1 = 0.7002): 1.4025 ± 0.0017 | refractive index ([1]; 313.15 K, x1 = 0.8004): 1.405 ± 0.0017 | refractive index ([1]; 313.15 K, x1 = 0.9011): 1.4065 ± 0.0017 | refractive index ([1]; 323.15 K, x1 = 0.1001): 1.364 ± 0.0016 | refractive index ([1]; 323.15 K, x1 = 0.2002): 1.377 ± 0.0016 | refractive index ([1]; 323.15 K, x1 = 0.3004): 1.3875 ± 0.0016 | refractive index ([1]; 323.15 K, x1 = 0.4003): 1.392 ± 0.0016 | refractive index ([1]; 323.15 K, x1 = 0.5009): 1.3965 ± 0.0016 | refractive index ([1]; 323.15 K, x1 = 0.5999): 1.399 ± 0.0016 | refractive index ([1]; 323.15 K, x1 = 0.7002): 1.401 ± 0.0017 | refractive index ([1]; 323.15 K, x1 = 0.8004): 1.4025 ± 0.0017 | refractive index ([1]; 323.15 K, x1 = 0.9011): 1.4045 ± 0.0017 | refractive index ([1]; 333.15 K, x1 = 0.1001): 1.362 ± 0.0016 | refractive index ([1]; 333.15 K, x1 = 0.2002): 1.376 ± 0.0016 | refractive index ([1]; 333.15 K, x1 = 0.3004): 1.385 ± 0.0016 | refractive index ([1]; 333.15 K, x1 = 0.4003): 1.391 ± 0.0016 | refractive index ([1]; 333.15 K, x1 = 0.5009): 1.395 ± 0.0016 | refractive index ([1]; 333.15 K, x1 = 0.5999): 1.398 ± 0.0016 | refractive index ([1]; 333.15 K, x1 = 0.7002): 1.399 ± 0.0017 | refractive index ([1]; 333.15 K, x1 = 0.8004): 1.401 ± 0.0017 | refractive index ([1]; 333.15 K, x1 = 0.9011): 1.4025 ± 0.0017 | refractive index ([1]; 343.15 K, x1 = 0.1001): 1.3615 ± 0.0018 | refractive index ([1]; 343.15 K, x1 = 0.2002): 1.376 ± 0.0016 | refractive index ([1]; 343.15 K, x1 = 0.3004): 1.385 ± 0.0016 | refractive index ([1]; 343.15 K, x1 = 0.4003): 1.39 ± 0.0016 | refractive index ([1]; 343.15 K, x1 = 0.5009): 1.3935 ± 0.0016 | refractive index ([1]; 343.15 K, x1 = 0.5999): 1.397 ± 0.0017 | refractive index ([1]; 343.15 K, x1 = 0.7002): 1.3985 ± 0.0017 | refractive index ([1]; 343.15 K, x1 = 0.8004): 1.3995 ± 0.0017 | refractive index ([1]; 343.15 K, x1 = 0.9011): 1.401 ± 0.0017 | mass density ([2]; 293.15 K, x1 = 0.1001): 1135.98 ± 2 kg/m3 | mass density ([2]; 293.15 K, x1 = 0.2002): 1190.68 ± 2 kg/m3 | mass density ([2]; 293.15 K, x1 = 0.3004): 1219.59 ± 2 kg/m3 | mass density ([2]; 293.15 K, x1 = 0.4003): 1237.8 ± 2 kg/m3 | mass density ([2]; 293.15 K, x1 = 0.5009): 1251.03 ± 2 kg/m3 | mass density ([2]; 293.15 K, x1 = 0.5999): 1261.19 ± 2.1 kg/m3 | mass density ([2]; 293.15 K, x1 = 0.7002): 1269.24 ± 2.1 kg/m3 | mass density ([2]; 293.15 K, x1 = 0.8004): 1275.23 ± 2.2 kg/m3 | mass density ([2]; 293.15 K, x1 = 0.9011): 1279.57 ± 2.3 kg/m3 | mass density ([2]; 303.15 K, x1 = 0.1001): 1129.7 ± 2 kg/m3 | mass density ([2]; 303.15 K, x1 = 0.2002): 1183.7 ± 2 kg/m3 | mass density ([2]; 303.15 K, x1 = 0.3004): 1212.47 ± 2 kg/m3 | mass density ([2]; 303.15 K, x1 = 0.4003): 1230.6 ± 2 kg/m3 | mass density ([2]; 303.15 K, x1 = 0.5009): 1243.72 ± 2 kg/m3 | mass density ([2]; 303.15 K, x1 = 0.5999): 1253.76 ± 2.1 kg/m3 | mass density ([2]; 303.15 K, x1 = 0.7002): 1261.71 ± 2.1 kg/m3 | mass density ([2]; 303.15 K, x1 = 0.8004): 1267.64 ± 2.2 kg/m3 | mass density ([2]; 303.15 K, x1 = 0.9011): 1271.96 ± 2.3 kg/m3 | mass density ([2]; 313.15 K, x1 = 0.1001): 1123.34 ± 2 kg/m3 | mass density ([2]; 313.15 K, x1 = 0.2002): 1176.44 ± 2 kg/m3 | mass density ([2]; 313.15 K, x1 = 0.3004): 1204.95 ± 2 kg/m3 | mass density ([2]; 313.15 K, x1 = 0.4003): 1223.03 ± 2 kg/m3 | mass density ([2]; 313.15 K, x1 = 0.5009): 1236.17 ± 2 kg/m3 | mass density ([2]; 313.15 K, x1 = 0.5999): 1246.23 ± 2.1 kg/m3 | mass density ([2]; 313.15 K, x1 = 0.7002): 1254.19 ± 2.1 kg/m3 | mass density ([2]; 313.15 K, x1 = 0.8004): 1260.1 ± 2.2 kg/m3 | mass density ([2]; 313.15 K, x1 = 0.9011): 1264.39 ± 2.3 kg/m3 | mass density ([2]; 323.15 K, x1 = 0.1001): 1116.34 ± 2 kg/m3 | mass density ([2]; 323.15 K, x1 = 0.2002): 1169.01 ± 2 kg/m3 | mass density ([2]; 323.15 K, x1 = 0.3004): 1197.41 ± 2 kg/m3 | mass density ([2]; 323.15 K, x1 = 0.4003): 1215.41 ± 2 kg/m3 | mass density ([2]; 323.15 K, x1 = 0.5009): 1228.52 ± 2 kg/m3 | mass density ([2]; 323.15 K, x1 = 0.5999): 1238.61 ± 2.1 kg/m3 | mass density ([2]; 323.15 K, x1 = 0.7002): 1246.64 ± 2.1 kg/m3 | mass density ([2]; 323.15 K, x1 = 0.8004): 1252.61 ± 2.2 kg/m3 | mass density ([2]; 323.15 K, x1 = 0.9011): 1256.9 ± 2.3 kg/m3 | mass density ([2]; 333.15 K, x1 = 0.1001): 1110.02 ± 2 kg/m3 | mass density ([2]; 333.15 K, x1 = 0.2002): 1161.89 ± 2 kg/m3 | mass density ([2]; 333.15 K, x1 = 0.3004): 1190.09 ± 2 kg/m3 | mass density ([2]; 333.15 K, x1 = 0.4003): 1208.03 ± 2 kg/m3 | mass density ([2]; 333.15 K, x1 = 0.5009): 1221.09 ± 2 kg/m3 | mass density ([2]; 333.15 K, x1 = 0.5999): 1231.14 ± 2.1 kg/m3 | mass density ([2]; 333.15 K, x1 = 0.7002): 1239.11 ± 2.1 kg/m3 | mass density ([2]; 333.15 K, x1 = 0.8004): 1245.05 ± 2.2 kg/m3 | mass density ([2]; 333.15 K, x1 = 0.9011): 1249.32 ± 2.3 kg/m3 | mass density ([2]; 343.15 K, x1 = 0.1001): 1101.5 ± 2 kg/m3 | mass density ([2]; 343.15 K, x1 = 0.2002): 1153.47 ± 2 kg/m3 | mass density ([2]; 343.15 K, x1 = 0.3004): 1181.98 ± 2 kg/m3 | mass density ([2]; 343.15 K, x1 = 0.4003): 1200.26 ± 2 kg/m3 | mass density ([2]; 343.15 K, x1 = 0.5009): 1213.58 ± 2 kg/m3 | mass density ([2]; 343.15 K, x1 = 0.5999): 1223.61 ± 2.1 kg/m3 | mass density ([2]; 343.15 K, x1 = 0.7002): 1231.58 ± 2.1 kg/m3 | mass density ([2]; 343.15 K, x1 = 0.8004): 1237.51 ± 2.2 kg/m3 | mass density ([2]; 343.15 K, x1 = 0.9011): 1241.76 ± 2.3 kg/m3
